Results from US9681664B2, “Macrocyclic picolinamides as fungicides” (Dow Agrosciences LLC, priority 2012, dated 2017).
Read-outs that look alike come from different tables or passages of the source.

Key:
Assay type in all cases: in vivo
[1] = test system: Glomerella lagenarium; Anamorph: Colletotrichum lagenarium; assay: Cucumber anthracnose (COLLLA) disease control; conditions: Colletotrichum orbiculare, 24 h, 1 Day Protectant, high volume, read-out: Disease Control COLLLA 1 DP
Experimental: Technical grades of materials were dissolved in acetone, which were then mixed with nine volumes of water containing 110 ppm Triton X-100. The fungicide solutions were applied onto wheat seedlings using an automated booth sprayer to run-off. All sprayed plants were allowed to air dry prior to further handling. All fungicides were evaluated using the aforementioned method for their activity vs. all target diseases. Wheat leaf blotch and brown rust activity were also evaluated using track spray applications, in which case the fungicides were formulated as EC formulations, containing 0.1% Trycol 5941 in the spray solutions. Cucumber seedlings (variety Bush Pickle) were propagated in soil-less Metro mix, with each pot having one plant, and used in the test when 12 to 14 days old. Test plants were inoculated with an aqueous spore suspension of Colletotrichum lagenarium 24 hr after fungicide treatments. After inoculation the plants were kept in a dew room at 22° C. with 100% relative humidity for 48 hr to permit spores to germinate and infect the leaf. The plants were then transferred to a growth room set at 22° C. for disease to develop. Fungicide formulation, application and disease assessment on the sprayed leaves followed the procedures as described in the Example A.

Cercospora beticola = assay: Leaf spot of sugar beets (CERCBE) disease control; conditions: 24 h, 1 Day Protectant, high volume, read-out: Disease Control CERCBE 1 DP
Experimental: Technical grades of materials were dissolved in acetone, which were then mixed with nine volumes of water containing 110 ppm Triton X-100. The fungicide solutions were applied onto wheat seedlings using an automated booth sprayer to run-off. All sprayed plants were allowed to air dry prior to further handling. All fungicides were evaluated using the aforementioned method for their activity vs. all target diseases. Wheat leaf blotch and brown rust activity were also evaluated using track spray applications, in which case the fungicides were formulated as EC formulations, containing 0.1% Trycol 5941 in the spray solutions. Sugar beet plants (variety HH88) were grown in soil-less Metro mix and trimmed regularly to maintain a uniform plant size prior to test. Plants were inoculated with a spore suspension 24 hr after fungicide treatments. Inoculated plants were kept in a dew chamber at 22° C. for 48 hr then incubated in a greenhouse set at 24° C. under a clear plastic hood with bottom ventilation until disease symptoms were fully expressed. Fungicide formulation, application and disease assessment on the sprayed leaves followed the procedures as described in the Example A.

[2] = test system: Puccinia triticina; Synonym: Puccinia recondite f. sp. tritici; assay: Wheat brown rust (PUCCRT) disease control on wheat seedlings; conditions: Puccinia triticina, High volume application, 100 ppm
Procedure, shortened: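 Yuma wheat grown to first fully emerged leaf was inoculated with Puccinia triticina spore suspension either before or after fungicide treatment, held overnight at 22° C. and 100% RH in darkness, then kept at 24° C. Fungicide applied by booth sprayer to run-off (acetone/water, 110 ppm Triton X-100) or as EC by track spray.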

[3] = test system: Magnaporthe grisea; Anamorph: Pyricularia oryzae; assay: whole plant or invertebrate; conditions: 24 h, read-out: PYRIOR 1 DP disease control
Alternaria solani = assay: Tomato early blight (ALTESO) disease control; conditions: 24 h, 1 Day Protectant, high volume, read-out: Disease Control ALTESO 1 DP
Experimental: Technical grades of materials were dissolved in acetone, which were then mixed with nine volumes of water containing 110 ppm Triton X-100. The fungicide solutions were applied onto wheat seedlings using an automated booth sprayer to run-off. All sprayed plants were allowed to air dry prior to further handling. All fungicides were evaluated using the aforementioned method for their activity vs. all target diseases. Wheat leaf blotch and brown rust activity were also evaluated using track spray applications, in which case the fungicides were formulated as EC formulations, containing 0.1% Trycol 5941 in the spray solutions. Tomato plants (variety Outdoor girl) were propagated in soil-less Metro mix, with each pot having one plant, and used when 12 to 14 days old. Test plants were inoculated with an aqueous spore suspension of Alternaria solani 24 hr after fungicide treatments. After inoculation the plants were kept in 100% relative humidity (one day in a dark dew chamber followed by two to three days in a lighted dew chamber at 20° C.) to permit spores to germinate and infect the leaf. The plants were then transferred to a growth room at 22° C. for disease to develop. Fungicide formulation, application and disease assessment on the sprayed leaves followed the procedures as described in the Example A.

[4] = 24 h, 1 Day Protectant, read-out: PUCCRT 1DP disease control
[5] = 72 h, 3 Day Curative, read-out: PUCCRT 3DC disease control

Compound	pest or weed control at 100 ppm [1] [%]	pest or weed control at 100 ppm (Cercospora beticola) [%]	pest or weed control at 100 ppm [2, 4] [%]	pest or weed control at 100 ppm [2, 5] [%]	pest or weed control at 100 ppm [3] [%]	pest or weed control at 100 ppm (Alternaria solani) [%]
COc1ccnc(C(=O)N[C@H]2CCC[C@H](OCC(C)C)[C@@H](Oc3ccccc3)[C@H](C)OC2=O)c1OCOC(C)=O [F26]	80 to 100	80 to 100	80 to 100	80 to 100	–	–
COc1ccnc(C(=O)N[C@H]2CCC[C@H](OCC(C)C)[C@@H](OCC(C)C)[C@H](C)OC2=O)c1OCOC(C)=O [F29]	80 to 100	80 to 100	80 to 100	80 to 100	80 to 100	80 to 100
COc1ccnc(C(=O)N[C@H]2CCC[C@H](OCc3ccccc3)[C@@H](OCc3ccccc3)[C@H](C)OC2=O)c1OCOC(C)=O [F30]	80 to 100	0 to 80	80 to 100	80 to 100	80 to 100	0 to 80
COc1ccnc(C(=O)N[C@H]2CCC[C@H](OCc3ccccc3)[C@@H](Oc3ccccc3)[C@H](C)OC2=O)c1OCOC(C)=O [F31]	80 to 100	80 to 100	80 to 100	80 to 100	80 to 100	0 to 80
COc1ccnc(C(=O)N[C@H]2CCC[C@H](OCC(C)C)[C@@H](Oc3ccccc3)[C@H](C)OC2=O)c1OCOC(=O)C(C)C [F34]	80 to 100	80 to 100	80 to 100	80 to 100	80 to 100	0 to 80
COc1ccnc(C(=O)N[C@H]2CCC[C@H](Oc3ccccc3)[C@@H](OCC(C)C)[C@H](C)OC2=O)c1OCOC(=O)C(C)C [F35]	80 to 100	80 to 100	80 to 100	80 to 100	80 to 100	80 to 100
COc1ccnc(C(=O)N[C@H]2CCC[C@H](Oc3ccccc3)[C@@H](Oc3ccccc3)[C@H](C)OC2=O)c1OCOC(=O)C(C)C [F36]	80 to 100	80 to 100	80 to 100	80 to 100	80 to 100	80 to 100
COc1ccnc(C(=O)N[C@H]2CCC[C@H](OCC(C)C)[C@@H](OCC(C)C)[C@H](C)OC2=O)c1OCOC(=O)C(C)C [F37]	80 to 100	80 to 100	80 to 100	80 to 100	80 to 100	80 to 100
COc1ccnc(C(=O)N[C@H]2CCC[C@H](OCC(C)C)[C@@H](OC3CCCC3)[C@H](C)OC2=O)c1OCOC(=O)C(C)C [F38]	80 to 100	80 to 100	80 to 100	80 to 100	80 to 100	80 to 100
